Measurements: patent US20240034731A1, “AZA-QUINAZOLINE COMPOUNDS AND METHODS OF USE” (Iambic Therapeutics, Inc., priority 2022, published 2024)
Blank lines part the entries; values can stand above or below the compound they belong to.

Columns and labels:
[1] = molecular target: CDK4/Cyclin D1 (Homo sapiens (Human), UniProt P11802); assay: CDK4/Cyclin D1 Mobility Shift Assay (MSA); format: biochemical; conditions: 0.2 mM ATP, read-out: CDK4/ CyclinD1 MSA IC50
Excerpt: CDK4/Cyclin D1 Mobility Shift Assay (MSA)
The purpose CDK4/Cyclin D1 assay is to evaluate the inhibition (% inhibition and IC50 values) in the presence of small molecule inhibitors by using a fluorescence based microfluidic mobility shift assay. CDK4/Cyclin D1 catalyzes the production of ADP from ATP that accompanies the phosphoryl transfer to the substrate peptide 5-FAM-Dyrktide (5-FAM-[…]) (Perkin Elmer Peptide 34). The mobility shift assay (MSA) electrophoretically separates the fluorescently labelled peptides (substrate and phosphorylated product) following the kinase reaction. Both substrate and product are measured, and the ratio of these values is used to generate % conversion of substrate to product by the LabChip EZ Reader. Typical reaction solutions contained 2% DMSO (+/− inhibitor), 10 mM MgCl2, 1 mM EGTA, 0.05% BSA, 2 mM DTT, 0.2 mM ATP, 0.01% Brig-35, 1.5 uM 5-FAM-Dyrktide, 2.5 nM CDK4/Cyclin D1 in 50 mM HEPES buffer at pH 7.5. The reaction was initiated with the addition of substrate solution, following a 30-minute pre-incubation of enzyme and inhibitor at 22° C. in the reaction mix. The reaction was stopped after 180 minutes by the addition of 75 uL of 500 mM EDTA and measured on a Perkin Elmer EZ reader instrument. IC50 determinations were made from a plot of the fractional velocity as a function of inhibitor concentration fit to the 4 parameters IC50 equation.

[2] = molecular target: CDK6/Cyclin D3 (Homo sapiens (Human), UniProt Q00534); assay: CDK6/Cyclin D3 ADP-Glo Kinase Assay; format: biochemical; conditions: 100 uM ATP, read-out: CDK6/ CyclinD3 IC50
How it was run: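 ADP-Glo luminescence measured ADP produced by CDK6/Cyclin D3 in a 90-min room-temperature reaction started with ATP-containing substrate, after 30-min enzyme–inhibitor pre-incubation. Fractional velocity was plotted against inhibitor concentration and fitted to a four-parameter IC50 model.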

[3] = tested on: OVCAR-3 cells; assay: Cell Growth Inhibition, OVCAR-3 (CellTiterGlo, 6 days); format: cell-based; conditions: Homo sapiens, 144 h, OVCAR-3, 6-day treatment
How it was run: (§1)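 IC50 from four-parameter, variable-slope fits of % growth inhibition, derived from CellTiterGlo 2.0 luminescence relative to control. Compounds, usually 10-10,000 nM in half-log steps, stayed 6 days at 37 °C, 5% CO2 with 500 MCF-7 or OVCAR-3 cells/well in 10% FBS RPMI.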

[4] = molecular target: CDK2/Cyclin E1 (Homo sapiens (Human), UniProt P24941); assay: CDK2/Cyclin E1 Full length ADP-Glo Kinase Assay; format: biochemical; conditions: 20 uM ATP, read-out: CDK2/ CyclinE1 IC50
How it was run: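 ADP-Glo luminescence (ATP depletion, then ADP-to-light conversion) quantified kinase turnover after a 90 min room-temperature reaction started by ATP/substrate, following 30 min enzyme–inhibitor preincubation. Enzyme: full-length CDK2/cyclin E1; IC50 fitted with a four-parameter equation on fractional velocity.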

[5] = molecular target: CDK1/Cyclin B1 (Homo sapiens (Human), UniProt P06493); assay: CDK1/Cyclin B1 ADP-Glo Kinase Assay; format: biochemical; conditions: ADP-Glo, 80 uM ATP; read-out: CDK1 Cyclin B1 IC50
How it was run: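 ADP-Glo luminescent readout of ADP production, with IC50 fitted by a four-parameter equation to fractional velocity against inhibitor concentration. Reaction started with ATP-containing substrate after a 30-minute enzyme–inhibitor pre-incubation and stopped after 90 minutes, both at room temperature.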

[6] = tested on: MCF-7 cells; assay: Cell Growth Inhibition, MCF-7 (CellTiterGlo, 6 days); format: cell-based; conditions: Homo sapiens, MCF7, 144 h, MCF-7, 6-day treatment
How it was run: as §1

CDK4/Cyclin D1, sequence (P11802 whole entry): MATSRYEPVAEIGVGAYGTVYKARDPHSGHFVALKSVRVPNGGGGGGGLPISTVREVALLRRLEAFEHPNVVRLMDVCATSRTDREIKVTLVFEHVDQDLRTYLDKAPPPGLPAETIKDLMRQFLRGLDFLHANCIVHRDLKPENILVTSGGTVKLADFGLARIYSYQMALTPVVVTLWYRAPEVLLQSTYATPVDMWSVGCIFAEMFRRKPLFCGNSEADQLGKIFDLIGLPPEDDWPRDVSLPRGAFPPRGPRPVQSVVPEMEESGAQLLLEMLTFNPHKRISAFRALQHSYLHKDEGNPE
CDK4/Cyclin D1, sequence (P24385 whole entry partner): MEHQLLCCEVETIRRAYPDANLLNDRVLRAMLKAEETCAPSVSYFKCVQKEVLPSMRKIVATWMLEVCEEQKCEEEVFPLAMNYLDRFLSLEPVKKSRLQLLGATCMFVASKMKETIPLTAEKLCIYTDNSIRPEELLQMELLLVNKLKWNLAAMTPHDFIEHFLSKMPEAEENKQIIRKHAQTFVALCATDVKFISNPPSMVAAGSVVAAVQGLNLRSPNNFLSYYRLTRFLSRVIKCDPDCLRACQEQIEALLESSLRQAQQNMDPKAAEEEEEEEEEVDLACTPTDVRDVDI
CDK1/Cyclin B1, sequence (P06493 whole entry): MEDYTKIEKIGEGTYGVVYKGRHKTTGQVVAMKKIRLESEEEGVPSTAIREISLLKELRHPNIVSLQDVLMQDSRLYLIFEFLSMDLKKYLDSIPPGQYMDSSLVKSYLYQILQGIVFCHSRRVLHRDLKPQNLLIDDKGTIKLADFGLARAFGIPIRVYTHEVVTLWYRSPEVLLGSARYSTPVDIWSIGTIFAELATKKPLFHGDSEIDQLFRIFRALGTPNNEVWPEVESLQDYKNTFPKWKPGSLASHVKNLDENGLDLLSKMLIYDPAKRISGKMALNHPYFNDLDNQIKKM
CDK1/Cyclin B1, sequence (P14635 whole entry partner): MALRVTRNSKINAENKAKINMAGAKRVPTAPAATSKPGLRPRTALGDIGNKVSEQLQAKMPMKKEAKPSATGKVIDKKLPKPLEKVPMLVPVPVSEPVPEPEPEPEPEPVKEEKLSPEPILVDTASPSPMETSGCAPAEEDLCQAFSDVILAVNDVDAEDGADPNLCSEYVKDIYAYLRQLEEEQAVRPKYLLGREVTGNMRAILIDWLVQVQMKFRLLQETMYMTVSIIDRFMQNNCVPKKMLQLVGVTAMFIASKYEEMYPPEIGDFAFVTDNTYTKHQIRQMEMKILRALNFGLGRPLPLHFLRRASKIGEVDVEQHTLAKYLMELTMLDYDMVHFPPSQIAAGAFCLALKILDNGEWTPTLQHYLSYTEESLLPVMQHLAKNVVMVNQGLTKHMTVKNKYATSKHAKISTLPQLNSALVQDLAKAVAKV
CDK6/Cyclin D3, sequence (Q00534 whole entry): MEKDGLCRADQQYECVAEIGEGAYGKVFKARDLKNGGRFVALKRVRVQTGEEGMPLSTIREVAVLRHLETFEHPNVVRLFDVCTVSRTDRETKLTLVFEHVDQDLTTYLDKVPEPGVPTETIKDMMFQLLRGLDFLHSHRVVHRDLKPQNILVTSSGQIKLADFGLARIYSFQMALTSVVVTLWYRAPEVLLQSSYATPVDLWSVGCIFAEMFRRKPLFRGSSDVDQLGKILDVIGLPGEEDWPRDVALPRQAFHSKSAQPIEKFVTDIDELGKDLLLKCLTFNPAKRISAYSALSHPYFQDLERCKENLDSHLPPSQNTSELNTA
CDK6/Cyclin D3, sequence (P30281 whole entry partner): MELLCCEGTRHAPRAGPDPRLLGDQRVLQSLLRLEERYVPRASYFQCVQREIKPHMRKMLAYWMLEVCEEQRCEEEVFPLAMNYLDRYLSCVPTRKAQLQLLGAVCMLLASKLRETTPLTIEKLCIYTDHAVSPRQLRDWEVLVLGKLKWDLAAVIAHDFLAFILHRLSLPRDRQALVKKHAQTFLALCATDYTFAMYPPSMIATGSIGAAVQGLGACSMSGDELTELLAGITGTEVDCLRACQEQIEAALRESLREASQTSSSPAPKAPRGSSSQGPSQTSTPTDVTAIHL

IC50 [1]: < 200 nM
IC50 [2]: < 200 nM
IC50 [3]: > 2000 nM
IC50 [4]: < 200 nM
IC50 [5]: 200 to 500 nM
IC50 [6]: > 2000 nM
SMILES: CS(=O)(=O)N1CC(Nc2ncc3ccnc(N4CCC5(C4)CC5(F)F)c3n2)C1 (stereo not drawn) [Compound 14, 8-(1,1-difluoro-5-azaspiro[2.4]heptan-5-yl)-N-(1-(methylsulfonyl)azetidin-3-yl)pyrido[3,4-d]pyrimidin-2-amine]

IC50 [1]: < 200 nM
IC50 [2]: < 200 nM
IC50 [3]: 500 to 2000 nM
IC50 [4]: < 200 nM
IC50 [5]: 200 to 500 nM
IC50 [6]: 500 to 2000 nM
SMILES: CS(=O)(=O)N1CCC(Nc2ncc3ccnc(N4CCC5(CCOCC5)C4)c3n2)CC1 [Compound 7, N-(1-(methylsulfonyl)piperidin-4-yl)-8-(8-oxa-2-azaspiro[4.5]decan-2-yl)pyrido[3,4-d]pyrimidin-2-amine]

IC50 [1]: < 200 nM
IC50 [2]: 200 to 500 nM
IC50 [3]: > 2000 nM
IC50 [4]: < 200 nM
IC50 [5]: 500 to 2000 nM
IC50 [6]: 500 to 2000 nM
SMILES: CS(=O)(=O)N1CCC(Nc2ncc3ccnc(N4CCN(C5CC5)CC4)c3n2)CC1 [Compound 1, 8-(4-cyclopropylpiperazin-1-yl)-N-(1-(methylsulfonyl)piperidin-4-yl)pyrido[3,4-d]pyrimidin-2-amine]

IC50 [1]: < 200 nM
IC50 [2]: < 200 nM
IC50 [3]: 500 to 2000 nM
IC50 [4]: < 200 nM
IC50 [5]: < 200 nM
IC50 [6]: 500 to 2000 nM
SMILES: CS(=O)(=O)N1CCC(Nc2ncc3ccnc(N4CCC(C#N)(C5CC5)C4)c3n2)CC1 (stereo not drawn) [Compound 5, 3-cyclopropyl-1-(2-((1-(methylsulfonyl)piperidin-4-yl)amino)pyrido[3,4-d]pyrimidin-8-yl)pyrrolidine-3-carbonitrile]

IC50 [1]: < 200 nM
IC50 [2]: < 200 nM
IC50 [3]: 200 to 500 nM
IC50 [4]: < 200 nM
IC50 [5]: < 200 nM
IC50 [6]: 200 to 500 nM
SMILES: CN1Cc2ccc(Nc3ncc4ccnc(N5CCC6(C5)CC6(F)F)c4n3)cc2C1 (stereo not drawn) [Compound 22, 8-(1,1-difluoro-5-azaspiro[2.4]heptan-5-yl)-N-(2-methylisoindolin-5-yl)pyrido[3,4-d]pyrimidin-2-amine]

Further lines, the compound ahead of its results:

SMILES: CCN1CC2(C1)CN(c1ccc(Nc3ncc4ccnc(N5CCC6(C5)CC(F)(F)C6)c4n3)nc1)C2 [Example 6, 8-(2,2-difluoro-6-azaspiro[3.4]octan-6-yl)-N-(5-(6-ethyl-2,6-diazaspiro[3.3]heptan-2-yl)pyridin-2-yl)pyrido[3,4-d]pyrimidin-2-amine]
IC50 [1]: < 200 nM
IC50 [2]: < 200 nM
IC50 [3]: > 2000 nM
IC50 [4]: 500 to 2000 nM
IC50 [5]: > 2000 nM
IC50 [6]: 500 to 2000 nM

SMILES: CS(=O)(=O)N1CCC(Nc2ncc3ccnc(N4CCC5(C4)CC(F)(F)C5)c3n2)CC1 [Example 2, 8-(2,2-difluoro-6-azaspiro[3.4]octan-6-yl)-N-(1-(methylsulfonyl)piperidin-4-yl)pyrido[3,4-d]pyrimidin-2-amine]
IC50 [1]: < 200 nM
IC50 [2]: < 200 nM
IC50 [3]: 500 to 2000 nM
IC50 [4]: < 200 nM
IC50 [5]: < 200 nM
IC50 [6]: 500 to 2000 nM

SMILES: CS(=O)(=O)N1CCC(Nc2ncc3ccnc(N4CCC5(C4)CC5(F)F)c3n2)CC1 (stereo not drawn) [Compound 3, 8-(1,1-difluoro-5-azaspiro[2.4]heptan-5-yl)-N-(1-(methylsulfonyl)piperidin-4-yl)pyrido[3,4-d]pyrimidin-2-amine]
IC50 [1]: < 200 nM
IC50 [2]: < 200 nM
IC50 [3]: < 200 nM
IC50 [4]: < 200 nM
IC50 [5]: < 200 nM
IC50 [6]: 500 to 2000 nM

SMILES: CN1CCC(n2cc(Nc3ncc4ccnc(N5CCC6(C5)CC6(F)F)c4n3)cn2)CC1 (stereo not drawn) [Compound 20, 8-(1,1-difluoro-5-azaspiro[2.4]heptan-5-yl)-N-(1-(1-methylpiperidin-4-yl)-1H-pyrazol-4-yl)pyrido[3,4-d]pyrimidin-2-amine]
IC50 [1]: < 200 nM
IC50 [2]: < 200 nM
IC50 [3]: 200 to 500 nM
IC50 [4]: < 200 nM
IC50 [5]: 500 to 2000 nM
IC50 [6]: 500 to 2000 nM

SMILES: CCN1CC2(C1)CN(c1ccc(Nc3ncc4ccnc(N5CCC6(CCOCC6)C5)c4n3)nc1)C2 [Compound 18, N-(5-(6-ethyl-2,6-diazaspiro[3.3]heptan-2-yl)pyridin-2-yl)-8-(8-oxa-2-azaspiro[4.5]decan-2-yl)pyrido[3,4-d]pyrimidin-2-amine]
IC50 [1]: < 200 nM
IC50 [2]: < 200 nM
IC50 [3]: > 2000 nM
IC50 [4]: 500 to 2000 nM
IC50 [5]: > 2000 nM
IC50 [6]: 200 to 500 nM
